Laboratory results published in patent publication US10059701B2 (Merck Patent GmbH, priority 2015, dated 2018).
Counter-ions that a name gives are not always drawn. Blank lines part the entries; values can stand above or below the molecule they belong to.

Legend:
IRAK1 = molecular target: T1, IRAK1 (Homo sapiens, UniProt P51617); experiment: IRAK1 enzymatic assay (ADP-Glo luminescence); assay type: biochemical; conditions: purified human recombinant His-TEV-IRAK1 (194-712)
T1 construct: His-TEV-IRAK1 (194-712); His (N); TEV cleavage site (N)
T1 sequence (P51617 194-712): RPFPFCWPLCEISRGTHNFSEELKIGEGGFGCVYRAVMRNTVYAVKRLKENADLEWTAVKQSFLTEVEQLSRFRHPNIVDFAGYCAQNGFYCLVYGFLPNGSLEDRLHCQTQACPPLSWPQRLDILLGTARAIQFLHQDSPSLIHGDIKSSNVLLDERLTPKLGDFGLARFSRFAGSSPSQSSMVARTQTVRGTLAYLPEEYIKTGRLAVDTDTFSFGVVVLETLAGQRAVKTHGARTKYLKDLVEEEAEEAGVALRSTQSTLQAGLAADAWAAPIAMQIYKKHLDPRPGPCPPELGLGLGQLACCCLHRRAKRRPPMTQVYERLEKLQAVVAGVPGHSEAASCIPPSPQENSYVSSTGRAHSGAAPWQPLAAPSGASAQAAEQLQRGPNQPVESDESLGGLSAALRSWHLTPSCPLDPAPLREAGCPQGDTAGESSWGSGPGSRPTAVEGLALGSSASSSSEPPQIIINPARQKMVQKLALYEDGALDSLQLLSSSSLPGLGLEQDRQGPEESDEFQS
In short: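 Recombinant human His-TEV-IRAK1 (194-712), 0.3 μg/ml, preincubated 15 min at RT with compounds (10 μM to 0.5 nM) in 50 mM Hepes pH 7.0, 10 mM MgCl2, 2 mM DTT, 0.1% BSA. ATP-started reaction run 2 hours at RT; ADP formed from ATP hydrolysis/autophosphorylation read by ADP-Glo luminescence.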

IRAK4 = molecular target: T2, IRAK4 (Homo sapiens, UniProt Q9NWZ3); experiment: IRAK4 enzymatic assay (ADP-Glo luminescence); assay type: biochemical; conditions: purified human recombinant His-TEV-IRAK4 (1-460), ATP 2 μM
T2 construct: His-TEV-IRAK4 (1-460); His (N); TEV cleavage site (N)
T2 sequence (Q9NWZ3 1-460): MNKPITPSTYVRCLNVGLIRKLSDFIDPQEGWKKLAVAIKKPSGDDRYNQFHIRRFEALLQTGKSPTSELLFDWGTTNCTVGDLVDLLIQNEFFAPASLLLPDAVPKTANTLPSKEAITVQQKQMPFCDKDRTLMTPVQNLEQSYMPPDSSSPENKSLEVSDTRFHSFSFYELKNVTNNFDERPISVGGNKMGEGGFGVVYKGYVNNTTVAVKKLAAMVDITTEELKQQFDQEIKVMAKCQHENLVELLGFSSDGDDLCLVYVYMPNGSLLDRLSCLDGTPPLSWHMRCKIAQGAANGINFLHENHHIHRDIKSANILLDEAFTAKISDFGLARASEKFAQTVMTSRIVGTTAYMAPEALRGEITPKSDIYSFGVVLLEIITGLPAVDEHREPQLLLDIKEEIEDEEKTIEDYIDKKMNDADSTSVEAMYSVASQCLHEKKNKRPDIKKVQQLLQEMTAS
In short: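 Recombinant His-TEV-IRAK4 (1-460) at 0.3 μg/ml preincubated 15 min at RT with compounds (10 μM to 0.5 nM) in Hepes pH 7.0 buffer with MgCl2/MnCl2. Reaction started with 2 μM ATP and 300 nM STK1-biotin peptide, run 2 h at RT. ADP formed read by ADP-Glo luminescence.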

Compound: O=C(/N=c1\[nH]c2cc(N3CCCOC3=O)ccc2n1CCC(F)(F)F)c1cccc(C(F)(F)F)c1 [Compound 176, (E)-N-(5-(2-oxo-1,3-oxazinan-3-yl)-1-(3,3,3-trifluoropropyl)-1H-benzo[d]imidazol-2(3H)-ylidene)-3-(trifluoromethyl)benzamide]
IC50 (IRAK1): 0.1 to 1 µM | IC50 (IRAK4): ≤ 0.1 µM

Compound: O=C(/N=c1\[nH]c2cc(N3CCCOC3=O)ccc2n1CC(F)(F)C(F)(F)F)c1cccc(C(F)(F)F)c1 [Compound 177, (E)-N-(5-(2-oxo-1,3-oxazinan-3-yl)-1-(2,2,3,3,3-pentafluoropropyl)-1H-benzo[d]imidazol-2(3H)-ylidene)-3-(trifluoromethyl)benzamide]
IC50 (IRAK1): > 1 µM | IC50 (IRAK4): ≤ 0.1 µM

Compound: CC(C)(F)Cn1/c(=N/C(=O)c2cccc(C(F)(F)F)c2)[nH]c2cc(N3CCCOC3=O)ccc21 [Compound 178, (E)-N-(1-(2-fluoro-2-methylpropyl)-5-(2-oxo-1,3-oxazinan-3-yl)-1H-benzo[d]imidazol-2(3H)-ylidene)-3-(trifluoromethyl)benzamide]
IC50 (IRAK1): 0.1 to 1 µM | IC50 (IRAK4): ≤ 0.1 µM

Compound: CC(F)(F)Cn1/c(=N/C(=O)c2cccc(C(F)(F)F)c2)[nH]c2cc(N3CCCOC3=O)ccc21 [Compound 179, (E)-N-(1-(2,2-difluoropropyl)-5-(2-oxo-1,3-oxazinan-3-yl)-1H-benzo[d]imidazol-2(3H)-ylidene)-3-(trifluoromethyl)benzamide]
IC50 (IRAK1): 0.1 to 1 µM | IC50 (IRAK4): ≤ 0.1 µM

Compound: O=C(/N=c1\[nH]c2cc(N3CCCOC3=O)ccc2n1CC1CCCOC1)c1cccc(C(F)(F)F)c1 (stereo not shown) [Compound 180, (E)-N-(5-(2-oxo-1,3-oxazinan-3-yl)-1-((tetrahydro-2H-pyran-3-yl)methyl)-1H-benzo[d]imidazol-2(3H)-ylidene)-3-(trifluoromethyl)benzamide]
IC50 (IRAK1): 0.1 to 1 µM | IC50 (IRAK4): ≤ 0.1 µM

Compound: O=C(/N=c1\[nH]c2cc(N3CCCOC3=O)ccc2n1CC1CCCCC1)c1cccc(C(F)(F)F)c1 [Compound 181, (E)-N-(1-(cyclohexylmethyl)-5-(2-oxo-1,3-oxazinan-3-yl)-1H-benzo[d]imidazol-2(3H)-ylidene)-3-(trifluoromethyl)benzamide]
IC50 (IRAK1): > 1 µM | IC50 (IRAK4): ≤ 0.1 µM

Compound: O=C(/N=c1\[nH]c2cc(N3CCN(C4CC4)CC3=O)ccc2n1CCCO)c1cccc(C(F)F)c1 [Compound 182, (E)-N-(5-(4-cyclopropyl-2-oxopiperazin-1-yl)-1-(3-hydroxypropyl)-1H-benzo[d]imidazol-2(3H)-ylidene)-3-(difluoromethyl)benzamide]
IC50 (IRAK1): ≤ 0.1 µM | IC50 (IRAK4): ≤ 0.1 µM

Compound: O=C(/N=c1\[nH]c2cc(N3CCN(C4CC4)CC3=O)ccc2n1CCCO)c1cccc(C(F)(F)F)c1 [Compound 183, (E)-N-(5-(4-cyclopropyl-2-oxopiperazin-1-yl)-1-(3-hydroxypropyl)-1H-benzo[d]imidazol-2(3H)-ylidene)-3-(trifluoromethyl)benzamide]
IC50 (IRAK1): ≤ 0.1 µM | IC50 (IRAK4): ≤ 0.1 µM

Compound: O=C(/N=c1\[nH]c2cc(N3CCN(C4CCC4)CC3=O)ccc2n1CCCO)c1cccc(C(F)F)c1 [Compound 184, (E)-N-(5-(4-cyclobutyl-2-oxopiperazin-1-yl)-1-(3-hydroxypropyl)-1H-benzo[d]imidazol-2(3H)-ylidene)-3-(difluoromethyl)benzamide]
IC50 (IRAK1): ≤ 0.1 µM | IC50 (IRAK4): ≤ 0.1 µM

The remaining lines, values ahead:

IC50 (IRAK1): ≤ 0.1 µM | IC50 (IRAK4): ≤ 0.1 µM
Compound: CC(C)N1CCN(c2ccc3c(c2)[nH]/c(=N\C(=O)c2cccc(C(F)F)c2)n3CCCO)C(=O)C1 [Compound 185, (E)-3-(difluoromethyl)-N-(1-(3-hydroxypropyl)-5-(4-isopropyl-2-oxopiperazin-1-yl)-1H-benzo[d]imidazol-2(3H)-ylidene)benzamide]

IC50 (IRAK1): 0.1 to 1 µM | IC50 (IRAK4): ≤ 0.1 µM
Compound: O=C(/N=c1\[nH]c2cc(N3CCSCC3=O)ccc2n1CCCO)c1cccc(C(F)(F)F)c1 [Compound 186, (E)-N-(1-(3-hydroxypropyl)-5-(3-oxothiomorpholino)-1H-benzo[d]imidazol-2(3H)-ylidene)-3-(trifluoromethyl)benzamide]

IC50 (IRAK1): ≤ 0.1 µM | IC50 (IRAK4): ≤ 0.1 µM
Compound: O=C(/N=c1\[nH]c2cc(N3CCSCC3=O)ccc2n1CCCO)c1cccc(C(F)F)c1 [Compound 187, (E)-3-(difluoromethyl)-N-(1-(3-hydroxypropyl)-5-(3-oxothiomorpholino)-1H-benzo[d]imidazol-2(3H)-ylidene)benzamide]

IC50 (IRAK1): 0.1 to 1 µM | IC50 (IRAK4): ≤ 0.1 µM
Compound: Cn1cnn(-c2ccc3c(c2)[nH]/c(=N\C(=O)c2cccc(C(F)(F)F)c2)n3CCCO)c1=O [Compound 188, (E)-N-(1-(3-hydroxypropyl)-5-(4-methyl-5-oxo-4,5-dihydro-1H-1,2,4-triazol-1-yl)-1H-benzo[d]imidazol-2(3H)-ylidene)-3-(trifluoromethyl)benzamide]

IC50 (IRAK1): ≤ 0.1 µM | IC50 (IRAK4): ≤ 0.1 µM
Compound: Cn1ncn(-c2ccc3c(c2)[nH]/c(=N\C(=O)c2cccc(C(F)(F)F)c2)n3CCCO)c1=O [Compound 189, (E)-N-(1-(3-hydroxypropyl)-5-(1-methyl-5-oxo-4,5-dihydro-1H-1,2,4-triazol-4(5H)-yl)-1H-benzo[d]imidazol-2(3H)-ylidene)-3-(trifluoromethyl)benzamide]

IC50 (IRAK1): 0.1 to 1 µM | IC50 (IRAK4): ≤ 0.1 µM
Compound: O=C(/N=c1\[nH]c2cc(N3CCCCS3(=O)=O)ccc2n1CCCO)c1cccc(C(F)(F)F)c1 [Compound 190, (E)-N-(5-(1,1-dioxido-1,2-thiazinan-2-yl)-1-(3-hydroxypropyl)-1H-benzo[d]imidazol-2(3H)-ylidene)-3-(trifluoromethyl)benzamide]

IC50 (IRAK1): 0.1 to 1 µM | IC50 (IRAK4): ≤ 0.1 µM
Compound: CC1(C)NCCN(c2ccc3c(c2)[nH]/c(=N\C(=O)c2cccc(C(F)(F)F)c2)n3CCCO)C1=O [Compound 191, (E)-N-(5-(3,3-dimethyl-2-oxopiperazin-1-yl)-1-(3-hydroxypropyl)-1H-benzo[d]imidazol-2(3H)-ylidene)-3-(trifluoromethyl)benzamide hydrochloride]

IC50 (IRAK1): 0.1 to 1 µM | IC50 (IRAK4): ≤ 0.1 µM
Compound: O=C(/N=c1\[nH]c2cc(N3CCOCCC3=O)ccc2n1CCCO)c1cccc(C(F)(F)F)c1 [Compound 192, (E)-N-(1-(3-hydroxypropyl)-5-(5-oxo-1,4-oxazepan-4-yl)-1H-benzo[d]imidazol-2(3H)-ylidene)-3-(trifluoromethyl)benzamide]

IC50 (IRAK1): ≤ 0.1 µM | IC50 (IRAK4): ≤ 0.1 µM
Compound: O=C(/N=c1\[nH]c2cc(N3CCCOCC3=O)ccc2n1CCCO)c1cccc(C(F)(F)F)c1 [Compound 193, (E)-N-(1-(3-hydroxypropyl)-5-(3-oxo-1,4-oxazepan-4-yl)-1H-benzo[d]imidazol-2(3H)-ylidene)-3-(trifluoromethyl)benzamide]

IC50 (IRAK1): 0.1 to 1 µM | IC50 (IRAK4): ≤ 0.1 µM
Compound: CC1(C)C(=O)N(c2ccc3c(c2)[nH]/c(=N\C(=O)c2cccc(C(F)(F)F)c2)n3CCCO)CCN1C1CC1 [Compound 194, (E)-N-(5-(4-cyclopropyl-3,3-dimethyl-2-oxopiperazin-1-yl)-1-(3-hydroxypropyl)-1H-benzo[d]imidazol-2(3H)-ylidene)-3-(trifluoromethyl)benzamide]

IC50 (IRAK1): ≤ 0.1 µM | IC50 (IRAK4): ≤ 0.1 µM
Compound: C[C@H](CCO)n1/c(=N/C(=O)c2cccc(C(F)F)c2)[nH]c2cc(N3CCOCC3=O)ccc21 [Compound 242, (R,E)-3-(difluoromethyl)-N-(1-(4-hydroxybutan-2-yl)-5-(3-oxomorpholino)-1H-benzo[d]imidazol-2(3H)-ylidene)benzamide]
